Source: patent US12297194B2, “N2-phenylpyrimidine-2,4-diamine compounds, and preparation methods and methods of use thereof” (BRIDGE BIOTHERAPEUTICS, INC., priority 2021, dated 2025)

Columns and labels:
Format in all cases: cell-based, murine
[1] = target: Ba/F3 EGFR Del19/T790M mutants (Homo sapiens, UniProt P00533, T790M, cells depend on it, form not given); test: CellTiter-Glo cell viability, Ba/F3 EGFR Del19/T790M cells; details: 72 hours, read-out: Ba/F3 EGFR mutant cell (IC50, nM) D/T
Method in brief: (§1)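 Ba/F3 cells expressing wild-type or mutant EGFR were seeded at 2500 cells/well and dosed 24 h later with compound at 0–2000 nM (10 points). After 72 h, viability was read by CellTiter-Glo luminescence, and IC50 values came from curve fitting.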

[2] = target: Ba/F3 EGFR L858R/C797S mutants (Homo sapiens, UniProt P00533, C797S/L858R, cells depend on it); test: CellTiter-Glo cell viability, Ba/F3 EGFR L858R/C797S cells; details: 72 hours, read-out: Ba/F3 EGFR mutant cell (IC50, nM) L/C
Ba/F3 EGFR L858R/C797S mutants, sequence (P00533 whole entry C797S/L858R): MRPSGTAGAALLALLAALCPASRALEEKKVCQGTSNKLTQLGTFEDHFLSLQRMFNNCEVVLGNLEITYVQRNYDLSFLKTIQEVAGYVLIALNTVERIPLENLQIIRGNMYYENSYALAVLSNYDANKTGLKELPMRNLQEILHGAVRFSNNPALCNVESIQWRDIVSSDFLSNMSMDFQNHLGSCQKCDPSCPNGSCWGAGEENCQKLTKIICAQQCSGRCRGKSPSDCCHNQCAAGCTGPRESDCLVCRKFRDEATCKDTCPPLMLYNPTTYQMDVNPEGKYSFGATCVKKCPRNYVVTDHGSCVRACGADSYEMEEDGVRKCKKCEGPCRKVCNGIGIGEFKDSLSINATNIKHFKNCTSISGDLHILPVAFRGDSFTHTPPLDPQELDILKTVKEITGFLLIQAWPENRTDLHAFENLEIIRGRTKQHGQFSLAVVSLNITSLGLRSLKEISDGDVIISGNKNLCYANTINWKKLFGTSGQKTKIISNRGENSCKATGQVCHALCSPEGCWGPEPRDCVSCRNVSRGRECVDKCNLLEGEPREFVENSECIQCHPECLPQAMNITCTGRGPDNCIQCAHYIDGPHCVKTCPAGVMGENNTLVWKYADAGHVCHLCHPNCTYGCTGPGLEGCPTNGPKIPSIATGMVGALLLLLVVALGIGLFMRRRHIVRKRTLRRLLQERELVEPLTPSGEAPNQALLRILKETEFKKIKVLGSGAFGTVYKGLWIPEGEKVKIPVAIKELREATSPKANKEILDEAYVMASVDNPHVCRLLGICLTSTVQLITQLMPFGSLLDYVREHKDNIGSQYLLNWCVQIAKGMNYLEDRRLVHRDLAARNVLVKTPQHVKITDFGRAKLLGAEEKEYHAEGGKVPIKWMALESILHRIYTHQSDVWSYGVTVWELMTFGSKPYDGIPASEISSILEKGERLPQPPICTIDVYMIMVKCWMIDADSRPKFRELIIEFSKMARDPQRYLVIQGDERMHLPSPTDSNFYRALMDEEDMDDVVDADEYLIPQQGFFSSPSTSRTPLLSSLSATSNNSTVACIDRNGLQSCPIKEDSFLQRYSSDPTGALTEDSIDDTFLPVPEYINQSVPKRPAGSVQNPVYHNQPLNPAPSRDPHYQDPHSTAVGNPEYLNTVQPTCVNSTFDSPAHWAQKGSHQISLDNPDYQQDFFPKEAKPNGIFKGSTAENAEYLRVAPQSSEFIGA
Method in brief: as §1

Ba/F3 EGFR Wild-type = Ba/F3 EGFR Wild-type (Homo sapiens, UniProt P00533); test: CellTiter-Glo cell viability, Ba/F3 EGFR wild-type cells; details: 72 hours, read-out: Ba/F3 EGFR mutant cell (IC50, nM) WT
Method in brief: as §1

[3] = target: Ba/F3 EGFR L858R/T790M/C797S mutants (Homo sapiens, UniProt P00533, T790M/C797S/L858R, cells depend on it); test: CellTiter-Glo cell viability, Ba/F3 EGFR L858R/T790M/C797S cells; details: 72 hours, read-out: Ba/F3 EGFR mutant cell (IC50, nM) L/T/C
Ba/F3 EGFR L858R/T790M/C797S mutants, sequence (P00533 whole entry T790M/C797S/L858R): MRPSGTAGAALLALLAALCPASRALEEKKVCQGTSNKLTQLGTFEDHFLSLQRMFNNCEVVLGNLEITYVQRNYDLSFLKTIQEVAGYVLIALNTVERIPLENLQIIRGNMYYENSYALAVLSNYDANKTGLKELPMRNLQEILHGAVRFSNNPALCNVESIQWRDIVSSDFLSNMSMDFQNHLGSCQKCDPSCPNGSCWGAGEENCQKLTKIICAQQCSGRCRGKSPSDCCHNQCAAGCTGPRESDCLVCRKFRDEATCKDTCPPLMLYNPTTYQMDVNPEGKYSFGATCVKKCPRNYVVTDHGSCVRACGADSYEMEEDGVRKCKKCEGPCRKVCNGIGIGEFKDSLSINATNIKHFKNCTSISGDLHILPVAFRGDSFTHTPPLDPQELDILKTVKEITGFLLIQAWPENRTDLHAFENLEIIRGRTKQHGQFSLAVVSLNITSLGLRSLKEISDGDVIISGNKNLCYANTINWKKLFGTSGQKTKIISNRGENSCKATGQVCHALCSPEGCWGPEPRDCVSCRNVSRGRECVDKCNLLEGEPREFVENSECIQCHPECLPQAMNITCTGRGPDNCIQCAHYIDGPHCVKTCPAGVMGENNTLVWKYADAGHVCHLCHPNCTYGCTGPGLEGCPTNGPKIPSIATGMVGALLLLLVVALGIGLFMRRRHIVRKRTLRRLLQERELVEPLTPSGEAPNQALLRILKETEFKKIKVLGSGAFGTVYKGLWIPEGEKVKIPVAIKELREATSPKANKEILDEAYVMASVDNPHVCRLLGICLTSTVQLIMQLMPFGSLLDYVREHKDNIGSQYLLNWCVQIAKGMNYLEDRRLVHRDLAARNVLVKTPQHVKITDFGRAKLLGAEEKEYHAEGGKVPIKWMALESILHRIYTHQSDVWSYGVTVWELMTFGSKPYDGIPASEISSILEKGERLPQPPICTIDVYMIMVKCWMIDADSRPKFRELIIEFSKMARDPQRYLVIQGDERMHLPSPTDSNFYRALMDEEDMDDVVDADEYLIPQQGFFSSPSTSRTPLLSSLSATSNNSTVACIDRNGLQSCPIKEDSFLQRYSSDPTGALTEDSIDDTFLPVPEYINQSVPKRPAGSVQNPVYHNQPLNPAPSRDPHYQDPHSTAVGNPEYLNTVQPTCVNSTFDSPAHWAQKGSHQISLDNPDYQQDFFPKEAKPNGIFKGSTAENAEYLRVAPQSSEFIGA
Method in brief: as §1

[4] = target: Ba/F3 EGFR Del19/C797S mutants (Homo sapiens, UniProt P00533, C797S, cells depend on it, form not given); test: CellTiter-Glo cell viability, Ba/F3 EGFR Del19/C797S cells; details: 72 hours, read-out: Ba/F3 EGFR mutant cell (IC50, nM) D/C
Ba/F3 EGFR Del19/C797S mutants, sequence (P00533 with tags, fused parts or gaps DEL746-750/C797S, form open): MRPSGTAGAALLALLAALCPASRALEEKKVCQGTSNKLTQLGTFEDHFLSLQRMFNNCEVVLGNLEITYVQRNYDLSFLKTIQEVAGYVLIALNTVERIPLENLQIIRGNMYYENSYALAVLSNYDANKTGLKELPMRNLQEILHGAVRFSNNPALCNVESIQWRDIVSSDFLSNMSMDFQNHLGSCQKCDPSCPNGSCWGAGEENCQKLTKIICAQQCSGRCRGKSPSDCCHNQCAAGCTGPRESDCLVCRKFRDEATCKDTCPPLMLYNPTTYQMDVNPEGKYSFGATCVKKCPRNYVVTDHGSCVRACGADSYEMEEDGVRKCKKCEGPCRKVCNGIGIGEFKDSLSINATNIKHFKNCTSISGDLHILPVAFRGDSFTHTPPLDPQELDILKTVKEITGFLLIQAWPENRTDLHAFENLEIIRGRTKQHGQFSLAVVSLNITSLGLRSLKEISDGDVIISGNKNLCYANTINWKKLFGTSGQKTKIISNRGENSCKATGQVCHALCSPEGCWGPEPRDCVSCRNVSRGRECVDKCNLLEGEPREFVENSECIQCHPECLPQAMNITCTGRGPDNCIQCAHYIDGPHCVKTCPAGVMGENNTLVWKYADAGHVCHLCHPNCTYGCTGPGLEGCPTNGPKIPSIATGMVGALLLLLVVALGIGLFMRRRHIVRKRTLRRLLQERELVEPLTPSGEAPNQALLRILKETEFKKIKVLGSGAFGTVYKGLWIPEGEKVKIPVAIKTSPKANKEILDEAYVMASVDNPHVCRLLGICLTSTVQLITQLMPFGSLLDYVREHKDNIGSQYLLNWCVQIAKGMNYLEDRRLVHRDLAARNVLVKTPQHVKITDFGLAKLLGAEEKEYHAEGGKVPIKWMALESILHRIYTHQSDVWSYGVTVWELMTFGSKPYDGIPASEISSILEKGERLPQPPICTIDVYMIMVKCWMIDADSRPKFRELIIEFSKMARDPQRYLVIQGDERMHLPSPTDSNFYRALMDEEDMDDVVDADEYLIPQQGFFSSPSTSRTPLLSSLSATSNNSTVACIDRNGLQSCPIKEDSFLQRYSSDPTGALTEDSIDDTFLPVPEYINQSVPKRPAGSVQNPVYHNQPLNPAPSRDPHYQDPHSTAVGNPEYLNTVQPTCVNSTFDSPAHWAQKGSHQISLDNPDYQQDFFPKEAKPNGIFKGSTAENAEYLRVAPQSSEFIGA
Method in brief: as §1

[5] = target: Ba/F3 EGFR Del19/T790M/C797S mutants (Homo sapiens, UniProt P00533, T790M/C797S, cells depend on it, form not given); test: CellTiter-Glo cell viability, Ba/F3 EGFR Del19/T790M/C797S cells; details: 72 hours, read-out: Ba/F3 EGFR mutant cell (IC50, nM) D/T/C
Method in brief: as §1

Ba/F3 EGFR Del19/T790M mutants, sequence (P00533 with tags, fused parts or gaps DEL746-750/T790M, form open): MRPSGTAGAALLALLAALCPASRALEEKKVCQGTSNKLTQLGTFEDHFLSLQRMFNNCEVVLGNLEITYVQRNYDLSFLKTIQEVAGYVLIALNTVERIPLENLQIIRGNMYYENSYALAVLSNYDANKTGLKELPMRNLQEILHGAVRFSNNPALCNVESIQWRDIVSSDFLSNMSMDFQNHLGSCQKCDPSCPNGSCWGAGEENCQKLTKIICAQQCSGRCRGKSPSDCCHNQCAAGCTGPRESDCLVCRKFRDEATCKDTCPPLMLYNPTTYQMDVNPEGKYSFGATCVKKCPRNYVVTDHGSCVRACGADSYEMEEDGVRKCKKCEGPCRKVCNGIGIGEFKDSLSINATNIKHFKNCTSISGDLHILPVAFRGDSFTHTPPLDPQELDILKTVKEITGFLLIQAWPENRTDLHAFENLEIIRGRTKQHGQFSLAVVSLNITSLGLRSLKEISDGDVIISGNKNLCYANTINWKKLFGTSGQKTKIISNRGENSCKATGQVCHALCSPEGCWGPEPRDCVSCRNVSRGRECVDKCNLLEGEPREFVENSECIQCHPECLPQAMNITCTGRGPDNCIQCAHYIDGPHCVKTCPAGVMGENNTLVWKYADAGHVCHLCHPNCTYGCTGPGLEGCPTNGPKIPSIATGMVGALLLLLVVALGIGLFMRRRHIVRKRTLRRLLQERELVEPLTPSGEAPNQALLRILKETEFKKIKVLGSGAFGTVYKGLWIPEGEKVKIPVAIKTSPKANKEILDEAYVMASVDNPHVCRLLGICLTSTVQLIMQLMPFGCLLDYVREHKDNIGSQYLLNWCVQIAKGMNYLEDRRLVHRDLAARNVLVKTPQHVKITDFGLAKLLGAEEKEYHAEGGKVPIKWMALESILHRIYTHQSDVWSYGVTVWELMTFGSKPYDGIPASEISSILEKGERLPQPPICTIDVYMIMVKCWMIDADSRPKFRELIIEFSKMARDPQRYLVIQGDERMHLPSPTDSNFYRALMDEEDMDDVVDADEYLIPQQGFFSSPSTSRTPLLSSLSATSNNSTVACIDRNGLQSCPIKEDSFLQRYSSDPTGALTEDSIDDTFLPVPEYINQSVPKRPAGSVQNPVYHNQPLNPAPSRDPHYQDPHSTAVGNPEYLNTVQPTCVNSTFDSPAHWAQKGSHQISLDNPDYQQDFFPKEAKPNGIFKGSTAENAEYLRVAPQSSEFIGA

Structure (SMILES) | GI50 [1] | GI50 [2] | GI50 (Ba/F3 EGFR Wild-type) | GI50 [3] | GI50 [4] | GI50 [5]
CCc1cc(Nc2ncc(Cl)c(Nc3ccc(OC)c(OC)c3NS(C)(=O)=O)n2)c(OC)cc1N1CCC(N2CCOCC2)CC1 [Example C18, N-(6-((5-chloro-2-((5-ethyl-2-methoxy-4-(4-morpholinopiperidin-1-yl)phenyl)amino)pyrimidin-4-yl)amino)-2,3-dimethoxyphenyl)methanesulfonamide] | 39 nM | 215 nM | 835 nM | 194 nM | 55 nM | 54 nM
CCCc1cc(Nc2ncc(Cl)c(Nc3cccc(OC)c3NS(C)(=O)=O)n2)c(OC)cc1N1CCC(N(C)C)CC1 [Example C19, N-(2-((5-chloro-2-((4-(4-(dimethylamino)piperidin-1-yl)-2-methoxy-5-propylphenyl)amino)pyrimidin-4-yl)amino)-6-methoxyphenyl)methanesulfonamide] | 9 nM | 30 nM | 668 nM | 54 nM | 12 nM | 7 nM
CCc1cc(Nc2ncc(Cl)c(Nc3cccc(OC)c3NS(C)(=O)=O)n2)c(OC)cc1N1CCC(N2CCOCC2)CC1 [Example C20, N-(2-((5-chloro-2-((5-ethyl-2-methoxy-4-(4-morpholinopiperidin-1-yl)phenyl)amino)pyrimidin-4-yl)amino)-6-methoxyphenyl)methanesulfonamide] | 21 nM | 87 nM | 1160 nM | 148 nM | 22 nM | 21 nM
COc1cc(N2CCC(N3CCN(C)CC3)CC2)c(C)cc1Nc1ncc(Br)c(Nc2cccc(OC)c2N(C)S(C)(=O)=O)n1 [Example C21, N-(2-((5-bromo-2-((2-methoxy-5-methyl-4-(4-(4-methylpiperazin-1-yl)piperidin-1-yl)phenyl)amino)pyrimidin-4-yl)amino)-6-methoxyphenyl)-N-methylmethanesulfonamide] | 18 nM | 61 nM | 660 nM | 49 nM | 10 nM | 13 nM
CCc1cc(Nc2ncc(Br)c(Nc3cccc(OC)c3NS(C)(=O)=O)n2)c(OC)cc1N1CCC(N2CCN(C)CC2)CC1 [Example C22, N-(2-((5-bromo-2-((5-ethyl-2-methoxy-4-(4-(4-methylpiperazin-1-yl)piperidin-1-yl)phenyl)amino)pyrimidin-4-yl)amino)-6-methoxyphenyl)methanesulfonamide] | 4 nM | 36 nM | 738 nM | 25 nM | 5 nM | 2 nM
CCCc1cc(Nc2ncc(Cl)c(Nc3cccc(OC)c3NS(C)(=O)=O)n2)c(OC)cc1N1CCC(N2CCOCC2)CC1 [Example C23, N-(2-((5-chloro-2-((2-methoxy-4-(4-morpholinopiperidin-1-yl)-5-propylphenyl)amino)pyrimidin-4-yl)amino)-6-methoxyphenyl)methanesulfonamide] | 30 nM | 72 nM | 1680 nM | 137 nM | 14 nM | 10 nM
COc1cc(N2CCC(N3CCN(C)CC3)CC2)c(C)cc1Nc1ncc(Cl)c(Nc2cccc(OC)c2NS(C)(=O)=O)n1 [Example C24, N-(2-((5-chloro-2-((2-methoxy-5-methyl-4-(4-(4-methylpiperazin-1-yl)piperidin-1-yl)phenyl)amino)pyrimidin-4-yl)amino)-6-methoxyphenyl)methanesulfonamide] | 14 nM | 41 nM | 605 nM | 83 nM | 6 nM | 7 nM
COc1cc(N2CCC(N3CCCC3)CC2)c(C)cc1Nc1ncc(Br)c(Nc2cccc(OC)c2NS(C)(=O)=O)n1 [Example C25, N-(2-((5-bromo-2-((2-methoxy-5-methyl-4-(4-(pyrrolidin-1-yl)piperidin-1-yl)phenyl)amino)pyrimidin-4-yl)amino)-6-methoxyphenyl)methanesulfonamide] | 6 nM | 55 nM | 707 nM | 44 nM | 18 nM | 6 nM
COc1ccc(Nc2nc(Nc3cc(C)c(N4CCC(N5CCN(C)CC5)CC4)cc3OC)ncc2Cl)c(NS(C)(=O)=O)c1 [Example C26, N-(2-((5-chloro-2-((2-methoxy-5-methyl-4-(4-(4-methylpiperazin-1-yl)piperidin-1-yl)phenyl)amino)pyrimidin-4-yl)amino)-5-methoxyphenyl)methanesulfonamide] | 8 nM | 35 nM | 421 nM | 54 nM | 7 nM | 5 nM
COc1cc(N2CCC(N3CCCC3)CC2)c(C)cc1Nc1ncc(Cl)c(Nc2ccc3c(c2NS(C)(=O)=O)OCCO3)n1 [Example C27, N-(6-((5-chloro-2-((2-methoxy-5-methyl-4-(4-(pyrrolidin-1-yl)piperidin-1-yl)phenyl)amino)pyrimidin-4-yl)amino)-2,3-dihydrobenzo[b][1,4]dioxin-5-yl)methanesulfonamide] | 16 nM | 43 nM | 565 nM | 48 nM | 10 nM | 15 nM
CCc1cc(Nc2ncc(Br)c(Nc3ccc4c(c3N(C)S(C)(=O)=O)OCCO4)n2)c(OC)cc1N1CCC(N2CCN(C)CC2)CC1 [Example C28, N-(6-((5-bromo-2-((5-ethyl-2-methoxy-4-(4-(4-methylpiperazin-1-yl)piperidin-1-yl)phenyl)amino)pyrimidin-4-yl)amino)-2,3-dihydrobenzo[b][1,4]dioxin-5-yl)-N-methylmethanesulfonamide] | 10 nM | 68 nM | 699 nM | 13 nM | 7 nM | 10 nM
CCc1cc(Nc2ncc(Br)c(Nc3cccc(OC)c3N(C)S(C)(=O)=O)n2)c(OC)cc1N1CCC(N2CCN(C)CC2)CC1 [Example C29, N-(2-((5-bromo-2-((5-ethyl-2-methoxy-4-(4-(4-methylpiperazin-1-yl)piperidin-1-yl)phenyl)amino)pyrimidin-4-yl)amino)-6-methoxyphenyl)-N-methylmethane sulfonamide] | 7 nM | 76 nM | 669 nM | 21 nM | 5 nM | 5 nM
CCc1cc(Nc2ncc(Cl)c(Nc3ccc4c(c3N(C)S(C)(=O)=O)OCCO4)n2)c(OC)cc1N1CCC(N2CCOCC2)CC1 [Example C30, N-(6-((5-chloro-2-((5-ethyl-2-methoxy-4-(4-morpholinopiperidin-1-yl)phenyl)amino)pyrimidin-4-yl)amino)-2,3-dihydrobenzo[b][1,4]dioxin-5-yl)-N-methylmethanesulfonamide] | 10 nM | 38 nM | 664 nM | 35 nM | 6 nM | 13 nM
CCCc1cc(Nc2ncc(Cl)c(Nc3cccc(OC)c3N(C)S(C)(=O)=O)n2)c(OC)cc1N1CCC(N(C)C)CC1 [Example C31, N-(2-((5-chloro-2-((4-(4-(dimethylamino)piperidin-1-yl)-2-methoxy-5-propylphenyl)amino)pyrimidin-4-yl)amino)-6-methoxyphenyl)-N-methylmethanesulfonamide] | 22 nM | 89 nM | 698 nM | 68 nM | 10 nM | 20 nM
